This is an account of results in PubChem BioAssay (NCI).

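These data come from cells grown in 96-well plates and exposed to compound for 48 hours at five concentrations. GI50: concentration for 50% inhibition of growth. The concentration for full growth arrest is given as TGI.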 Bounds are passed on as bounds.

Some test systems named below: SK-MEL-5 melanoma; HS 578T breast; UACC-257 melanoma; SK-MEL-2 melanoma; OVCAR-5 ovarian; HCT-15 colon; SF-295 CNS; SK-OV-3 ovarian.
What all share (experiment): inhibition of tumour cell growth, NCI panel, 48 h

With `CCCCCCNCc1cc(C(C)(C)C)cc(CNCCCCCC)c1O`, the GI50 in the assay with SK-MEL-5 melanoma was 1.65 µM; with HS 578T breast, 1.72 µM; in the assay with UACC-257 melanoma it was 1.67 µM; in the assay on SK-MEL-2 melanoma, 1.98 µM; in the assay with OVCAR-5 ovarian, 1.54 µM; in the assay on HCT-15 colon it was 1.63 µM. In addition, the GI50 with SF-295 CNS was 1.64 µM. In addition, the TGI in the assay on SK-MEL-5 melanoma stood at 3.01 µM; with HS 578T breast, 4.03 µM; in the assay on UACC-257 melanoma, 3.13 µM; in the assay with SK-MEL-2 melanoma, 3.52 µM; in the assay on OVCAR-5 ovarian, 2.88 µM; in the assay with HCT-15 colon it was 3.1 µM. The compound also gave a TGI in the assay on SF-295 CNS of 3.16 µM.

On to `CC1(C)Cc2c(Br)c(Br)c(Br)c(OCC(O)CN3CCN(c4ccccn4)CC3)c2O1` (stereo unspecified), for which the GI50 is 10.8 µM in the assay on SK-MEL-5 melanoma; 18.6 µM with HS 578T breast; 16.6 µM in the assay on UACC-257 melanoma; 4.95 µM with SK-MEL-2 melanoma; 33.2 µM in the assay on SK-OV-3 ovarian; 16.2 µM in the assay on OVCAR-5 ovarian. The GI50 with HCT-15 colon is 10.9 µM; in the assay on SF-295 CNS, 6.11 µM. Moreover, the TGI in the assay with SK-MEL-5 melanoma was 23.1 µM; in the assay with HS 578T breast it was 39.2 µM; in the assay on UACC-257 melanoma it was 39.7 µM; in the assay on SK-MEL-2 melanoma, 19.2 µM; in the assay on SK-OV-3 ovarian it was over 100 µM; with OVCAR-5 ovarian it was 31.3 µM. The TGI came to 26.5 µM with HCT-15 colon and 21.4 µM in the assay on SF-295 CNS.

With `CCCCOC1OC(COC(=O)C(C)C)C(OC(=O)C(C)C)C(O)C1OC1OC(C)C(OC(=O)CCC)C(OC(=O)C(C)C)C1O` (stereo unspecified), the GI50 with SK-MEL-5 melanoma is 13.6 µM; in the assay on HS 578T breast it was 20.7 µM; with UACC-257 melanoma, 18.5 µM; in the assay with SK-MEL-2 melanoma, 36.2 µM; with SK-OV-3 ovarian, 19.8 µM; in the assay with OVCAR-5 ovarian, 12.7 µM. Besides, the GI50 in the assay with HCT-15 colon was 14.2 µM; with SF-295 CNS, 14.4 µM. The TGI was 26.5 µM in the assay with SK-MEL-5 melanoma; 39.7 µM with HS 578T breast; 32.5 µM in the assay with UACC-257 melanoma; over 100 µM with SK-MEL-2 melanoma; 34 µM in the assay on SK-OV-3 ovarian; 25.2 µM with OVCAR-5 ovarian. Also, the TGI stood at 27.3 µM in the assay with HCT-15 colon and 27.5 µM in the assay on SF-295 CNS.

With `CCN1C(=NCCO)NS(=O)(=O)c2ccccc21`, the TGI in the assay with SK-MEL-5 melanoma, in the assay on HS 578T breast, in the assay on UACC-257 melanoma, in the assay with SK-MEL-2 melanoma, with SK-OV-3 ovarian and in the assay with OVCAR-5 ovarian was over 100 µM in each case. Also, the TGI in the assay with HCT-15 colon and with SF-295 CNS was over 100 µM throughout.

Consider `COc1cc(C)c2sc3ccccc3c(=O)c2c1NCCN(C)C`, for which the GI50 in the assay with SK-MEL-5 melanoma was 1.67 µM; with UACC-257 melanoma, 2.06 µM; in the assay with SK-MEL-2 melanoma it was 6.64 µM; with SK-OV-3 ovarian, 10.9 µM; in the assay on OVCAR-5 ovarian, 9.57 µM; in the assay with HCT-15 colon, 3.13 µM. For the same compound, in the assay with SF-295 CNS, the GI50 is 6.25 µM. Further, the TGI with SK-MEL-5 melanoma worked out at 3.08 µM; in the assay on UACC-257 melanoma, 3.97 µM; in the assay on SK-MEL-2 melanoma, 19.6 µM; in the assay with SK-OV-3 ovarian it was 23.6 µM; in the assay with OVCAR-5 ovarian, 22.3 µM; in the assay on HCT-15 colon, 11.2 µM. In the assay on SF-295 CNS, the TGI came to 19.5 µM.

As to `Cc1cc(Cl)ccc1C(=O)c1ccc2ccccc2c1C(=O)O`, the TGI in the assay with SK-MEL-5 melanoma, in the assay with UACC-257 melanoma, in the assay on SK-MEL-2 melanoma, in the assay on OVCAR-5 ovarian, with HCT-15 colon and in the assay on SF-295 CNS was over 100 µM throughout.

Consider `COc1ccc(C(=O)c2sc3nc(-c4cccs4)ccc3c2N)cc1OC`, for which the GI50 was 2.01 µM in the assay with SK-MEL-5 melanoma; 6.27 µM with HS 578T breast; 8.51 µM with UACC-257 melanoma; 3.29 µM in the assay on SK-MEL-2 melanoma; 51.9 µM in the assay with SK-OV-3 ovarian; 19.8 µM with OVCAR-5 ovarian. Moreover, the values for the GI50 in the assay on HCT-15 colon and with SF-295 CNS were 2.81 µM and 3.07 µM, respectively. Also, the TGI in the assay on SK-MEL-5 melanoma is 5.28 µM; in the assay on HS 578T breast it was over 100 µM; in the assay with UACC-257 melanoma it was over 100 µM; in the assay on SK-MEL-2 melanoma, 19.2 µM; in the assay on SK-OV-3 ovarian it was over 100 µM; in the assay with OVCAR-5 ovarian, over 100 µM. For the same compound, the values for the TGI with HCT-15 colon and in the assay with SF-295 CNS were over 100 µM and 18.2 µM, respectively.

In the case of `CC(=O)c1ccc(NC(=O)C(=O)C(C#N)CC(C)(C)C=O)cc1` (stereo unspecified), the TGI with SK-MEL-5 melanoma, in the assay with UACC-257 melanoma, in the assay on SK-MEL-2 melanoma, in the assay on SK-OV-3 ovarian, in the assay with OVCAR-5 ovarian and in the assay on HCT-15 colon was over 100 µM throughout. In the assay with SF-295 CNS, the TGI is over 100 µM.

On to `CCOC(=O)Nc1cc2ccccc2c(N=Nc2ccccc2)c1O`, for which the TGI with SK-MEL-5 melanoma, with HS 578T breast, in the assay with UACC-257 melanoma, in the assay on SK-MEL-2 melanoma, in the assay on SK-OV-3 ovarian and in the assay on OVCAR-5 ovarian was over 100 µM throughout. Also, the TGI with HCT-15 colon and in the assay with SF-295 CNS was over 100 µM throughout.

As to `Cl.Fc1c[c-]c(-c2ccccn2)c(F)c1.[Pt].c1ccc([PH+](C[PH+](c2ccccc2)c2ccccc2)c2ccccc2)cc1`, the GI50 in the assay on HS 578T breast was 0.312 µM; in the assay on UACC-257 melanoma, 0.269 µM; in the assay with SK-OV-3 ovarian, 0.293 µM; in the assay with OVCAR-5 ovarian, 0.324 µM. The TGI in the assay on HS 578T breast worked out at 1.56 µM; in the assay with UACC-257 melanoma, 0.829 µM; in the assay with SK-OV-3 ovarian it was 0.84 µM; in the assay with OVCAR-5 ovarian it was 1.18 µM.

Regarding `Nc1nc(N)c2nc3c(nc2n1)CCCCCCCCCC3`, the GI50 in the assay with SK-MEL-5 melanoma is 0.652 µM; in the assay on HS 578T breast, 3.63 µM; in the assay on UACC-257 melanoma it was 2.4 µM; in the assay with SK-OV-3 ovarian, 12 µM; with OVCAR-5 ovarian, 1.75 µM; in the assay on HCT-15 colon, 0.891 µM. Besides, the GI50 with SF-295 CNS was 0.509 µM. Further, the TGI with SK-MEL-5 melanoma, with HS 578T breast, with UACC-257 melanoma, in the assay on SK-OV-3 ovarian, in the assay with OVCAR-5 ovarian and with HCT-15 colon was over 100 µM throughout. The same compound returned a TGI in the assay on SF-295 CNS of over 100 µM.

`COc1ccc(-c2c3c(nc4n[nH]c(-c5ccc(Cl)cc5)c24)-c2ccccc2C(=O)C3=O)cc1`: the GI50 in the assay with SK-MEL-5 melanoma is 1.51 µM; in the assay with HS 578T breast it was 1.85 µM; in the assay on UACC-257 melanoma, 1.57 µM; with SK-MEL-2 melanoma, 1.56 µM; with SK-OV-3 ovarian, 1.68 µM; in the assay on OVCAR-5 ovarian it was 2.15 µM. Also, the GI50 in the assay on SF-295 CNS is 1.9 µM. Besides, the TGI with SK-MEL-5 melanoma is 2.84 µM; with HS 578T breast it was 8.14 µM; in the assay on UACC-257 melanoma, 2.95 µM; in the assay on SK-MEL-2 melanoma it was 3.3 µM; in the assay on SK-OV-3 ovarian, 3.23 µM; in the assay with OVCAR-5 ovarian it was 4.79 µM. Moreover, in the assay with SF-295 CNS, the TGI was determined as 4.32 µM.
